pIC50: −log10 of the molar value.
target: PRC2 complex (EZH2 Y641F/EED/SUZ12/RbAp48/AEBP2) (Homo sapiens (Human), UniProt Q15910, Y641F); experiment: Activity of a compound to PRC2 complex (EZH2 Y641F), HTRF; conditions: not given
Sequence (Q15910 whole entry Y641F): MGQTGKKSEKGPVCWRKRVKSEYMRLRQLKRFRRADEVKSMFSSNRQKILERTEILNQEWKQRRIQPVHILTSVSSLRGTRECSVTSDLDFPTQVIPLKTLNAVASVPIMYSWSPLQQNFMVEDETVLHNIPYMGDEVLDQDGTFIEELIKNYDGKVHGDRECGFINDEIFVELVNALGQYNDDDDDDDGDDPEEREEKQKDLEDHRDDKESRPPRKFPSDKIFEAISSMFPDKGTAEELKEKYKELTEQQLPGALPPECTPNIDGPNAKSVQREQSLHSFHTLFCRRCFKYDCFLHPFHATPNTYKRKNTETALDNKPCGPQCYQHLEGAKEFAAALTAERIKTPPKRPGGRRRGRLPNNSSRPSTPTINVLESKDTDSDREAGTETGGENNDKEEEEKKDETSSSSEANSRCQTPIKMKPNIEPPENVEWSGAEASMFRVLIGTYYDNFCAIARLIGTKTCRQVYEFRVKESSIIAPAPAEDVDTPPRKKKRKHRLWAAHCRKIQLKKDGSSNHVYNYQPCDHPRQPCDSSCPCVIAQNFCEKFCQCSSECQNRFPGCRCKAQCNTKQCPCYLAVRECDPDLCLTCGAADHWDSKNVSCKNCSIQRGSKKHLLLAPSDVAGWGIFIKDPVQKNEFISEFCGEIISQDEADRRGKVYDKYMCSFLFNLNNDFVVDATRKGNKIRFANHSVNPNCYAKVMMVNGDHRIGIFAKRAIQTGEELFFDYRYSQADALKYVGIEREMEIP
Sequence (O75530 whole entry partner): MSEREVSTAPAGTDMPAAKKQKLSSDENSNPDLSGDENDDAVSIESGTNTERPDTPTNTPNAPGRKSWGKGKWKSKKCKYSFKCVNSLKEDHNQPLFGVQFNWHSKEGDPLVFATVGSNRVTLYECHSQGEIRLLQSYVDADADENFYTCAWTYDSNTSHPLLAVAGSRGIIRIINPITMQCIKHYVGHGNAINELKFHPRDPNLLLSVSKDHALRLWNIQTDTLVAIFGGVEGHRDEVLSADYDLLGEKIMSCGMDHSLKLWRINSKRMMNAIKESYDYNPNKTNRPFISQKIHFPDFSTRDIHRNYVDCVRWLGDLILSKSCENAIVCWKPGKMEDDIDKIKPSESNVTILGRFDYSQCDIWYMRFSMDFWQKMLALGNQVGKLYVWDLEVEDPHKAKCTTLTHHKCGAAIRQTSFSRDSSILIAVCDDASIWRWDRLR
Sequence (Q15022 whole entry partner): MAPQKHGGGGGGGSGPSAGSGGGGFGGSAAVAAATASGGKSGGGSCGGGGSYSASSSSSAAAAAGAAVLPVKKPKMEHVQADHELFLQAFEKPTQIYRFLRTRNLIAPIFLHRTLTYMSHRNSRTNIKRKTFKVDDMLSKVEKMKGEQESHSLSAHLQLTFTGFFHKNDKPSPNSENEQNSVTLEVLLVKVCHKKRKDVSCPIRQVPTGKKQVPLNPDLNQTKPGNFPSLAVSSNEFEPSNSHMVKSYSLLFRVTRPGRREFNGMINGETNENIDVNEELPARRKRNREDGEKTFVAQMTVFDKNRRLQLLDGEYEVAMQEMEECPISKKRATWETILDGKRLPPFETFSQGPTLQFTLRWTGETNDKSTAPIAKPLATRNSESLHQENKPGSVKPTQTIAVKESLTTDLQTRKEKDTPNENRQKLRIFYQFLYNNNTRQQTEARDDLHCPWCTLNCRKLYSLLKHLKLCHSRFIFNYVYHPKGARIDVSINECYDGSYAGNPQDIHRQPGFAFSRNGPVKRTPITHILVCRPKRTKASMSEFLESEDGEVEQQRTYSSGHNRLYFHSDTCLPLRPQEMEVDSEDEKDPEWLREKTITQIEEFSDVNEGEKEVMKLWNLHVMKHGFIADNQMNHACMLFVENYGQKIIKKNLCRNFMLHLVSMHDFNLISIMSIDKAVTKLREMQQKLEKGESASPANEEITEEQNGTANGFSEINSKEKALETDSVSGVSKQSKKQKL
Sequence (Q09028 whole entry partner): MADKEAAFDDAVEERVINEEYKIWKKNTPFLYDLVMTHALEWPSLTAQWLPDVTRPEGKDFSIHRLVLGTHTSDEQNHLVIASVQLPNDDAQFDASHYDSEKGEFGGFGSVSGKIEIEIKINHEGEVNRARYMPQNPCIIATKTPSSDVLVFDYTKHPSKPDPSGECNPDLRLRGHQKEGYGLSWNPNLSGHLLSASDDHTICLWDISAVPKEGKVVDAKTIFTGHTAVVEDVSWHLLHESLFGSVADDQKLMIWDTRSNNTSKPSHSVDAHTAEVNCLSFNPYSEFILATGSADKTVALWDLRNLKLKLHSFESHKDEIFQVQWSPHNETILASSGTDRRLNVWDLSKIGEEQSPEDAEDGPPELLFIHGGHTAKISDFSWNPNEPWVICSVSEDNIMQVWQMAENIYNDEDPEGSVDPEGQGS
Sequence (Q6ZN18 whole entry partner): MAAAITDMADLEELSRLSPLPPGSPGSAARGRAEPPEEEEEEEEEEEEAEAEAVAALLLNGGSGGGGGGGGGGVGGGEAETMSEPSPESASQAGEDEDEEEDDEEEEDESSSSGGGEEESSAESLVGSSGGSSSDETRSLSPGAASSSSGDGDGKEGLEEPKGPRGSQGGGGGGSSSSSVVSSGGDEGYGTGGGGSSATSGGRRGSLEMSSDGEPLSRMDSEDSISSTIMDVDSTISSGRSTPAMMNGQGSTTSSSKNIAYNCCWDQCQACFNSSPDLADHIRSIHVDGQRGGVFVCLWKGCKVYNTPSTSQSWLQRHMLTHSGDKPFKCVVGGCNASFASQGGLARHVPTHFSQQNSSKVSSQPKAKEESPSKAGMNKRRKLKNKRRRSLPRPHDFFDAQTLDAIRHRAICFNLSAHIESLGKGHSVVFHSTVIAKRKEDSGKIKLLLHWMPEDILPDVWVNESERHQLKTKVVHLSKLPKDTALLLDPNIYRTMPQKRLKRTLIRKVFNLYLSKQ

pIC50 | Compound
6.00 to 7.00 | Cc1cc(C)c(CNC(=O)c2cc3cc(Br)cn3c(C(C)N3CCN(S(C)(=O)=O)CC3)c2C)c(=O)[nH]1 (stereo not shown) [Example 103, 2-bromo-N-((4,6-dimethyl-2-oxo-1,2-dihydropyridin-3-yl)methyl)-6-methyl-5-(1-(4-(methylsulfonyl)piperazin-1-yl)ethyl)indolizine-7-carboxamide]
> 7.00 | CCc1cc(-c2ccn3c(C(C)N4CCN(CC(F)(F)F)CC4)c(C)c(C(=O)NCc4c(OC)cc(C)[nH]c4=O)cc23)ccn1 (stereo not shown) [Compound 205, 1-(2-ethylpyridin-4-yl)-N-((4-methoxy-6-methyl-2-oxo-1,2-dihydropyridin-3-yl)methyl)-6-methyl-5-(1-(4-(2,2,2-trifluoroethyl)piperazin-1-yl)ethyl)indolizine-7-carboxamide]

The remaining lines, values behind:

Compound | pIC50
Cc1cc(=O)c(CNC(=O)c2cc3c(-c4ccc(N)nc4)ccn3c(C(C)N3CCN(CC(F)(F)F)CC3)c2C)c(C)[nH]1 (stereo not shown) [Compound 184, 1-(6-aminopyridin-3-yl)-N-((2,6-dimethyl-4-oxo-1,4-dihydropyridin-3-yl)methyl)-6-methyl-5-(1-(4-(2,2,2-trifluoroethyl)piperazin-1-yl)ethyl)indolizine-7-carboxamide] | > 7.00
Cc1cc(C)c(CNC(=O)c2cc3c(-c4cccc(N5CCOCC5)c4)ccn3c(C(C)N3CCOCC3)c2C)c(=O)[nH]1 (stereo not shown) [Example 117, N-((4,6-dimethyl-2-oxo-1,2-dihydropyridin-3-yl)methyl)-6-methyl-5-(1-morpholinylethyl)-1-(3-morpholinylphenyl)indolizine-7-carboxamide] | > 7.00
COc1cc(-c2cc3cc(C(=O)NCc4c(C)cc(C)[nH]c4=O)c(C)c(C(C)N4CCOCC4)n3c2)cc(OC)c1OC (stereo not shown) [Example 37, N-((4,6-dimethyl-2-oxo-1,2-dihydropyridin-3-yl)methyl)-6-methyl-5-(1-morpholinylethyl)-2-(3,4,5-trimethoxyphenyl)indolizine-7-carboxamide] | > 7.00

same assay, conditions: read-out: IC50 (EZH2_Y641F); EZH2 Y641F PRC2 complex, HTRF; class symbols

pIC50 | Compound
> 7.00 | Cc1cc(C)c(CNC(=O)c2cc3cc(-c4cncn4C)cn3c(C(C)N3CCN(CC(F)(F)F)CC3)c2C)c(=O)[nH]1 (stereo not shown) [Example 136, N-((4,6-dimethyl-2-oxo-1,2-dihydropyridin-3-yl)methyl)-6-methyl-2-(1-methyl-1H-imidazol-5-yl)-5-(1-(4-(2,2,2-trifluoroethyl)piperazin-1-yl)ethyl)indolizine-7-carboxamide]
> 7.00 | Cc1cc(C)c(CNC(=O)c2cc3cc(-c4ccn(C)n4)cn3c(C(C)N3CCC(N(C)C)CC3)c2C)c(=O)[nH]1 (stereo not shown) [Example 77, N-((4,6-dimethyl-2-oxo-1,2-dihydropyridin-3-yl)methyl)-5-(1-(4-(dimethylamino)piperidine-1-yl)ethyl)-6-methyl-2-(1-methyl-1H-pyrazol-3-yl)indolizin-7-carboxamide]
> 7.00 | COc1cc(C)[nH]c(=O)c1CNC(=O)c1cc2cc(-c3cncs3)cn2c(C(C)N2CCN(CC(F)(F)F)CC2)c1C (stereo not shown) [Example 142, N-((4-methoxy-6-methyl-2-oxo-1,2-dihydropyridin-3-yl)methyl)-6-methyl-2-(thiazole-5-yl)-5-(1-(4-(2,2,2-trifluoroethyl)piperazin-1-yl)ethyl)indolizine-7-carboxamide]
> 7.00 | COc1cc(C)[nH]c(=O)c1CNC(=O)c1cc2c(-c3ccc(C)nn3)ccn2c(C(C)N2CCN(CC(F)(F)F)CC2)c1C (stereo not shown) [Compound 199, N-((4-methoxy-6-methyl-2-oxo-1,2-dihydropyridin-3-yl)methyl)-6-methyl-1-(6-methylpyridazin-3-yl)-5-(1-(4-(2,2,2-trifluoroethyl)piperazin-1-yl)ethyl)indolizine-7-carboxamide]
6.00 to 7.00 | Cc1cc(C)c(CNC(=O)c2cc3cc(-c4ccn(C)n4)cn3c(C(C)N3CCC(N(C)C)CC3)c2C)c(=O)[nH]1 (stereo not shown) [Example 76]
6.00 to 7.00 | Cc1cc(C)c(CNC(=O)c2cc3cc(Br)cn3c(C(C)N3CCC(N4CCCC4)CC3)c2C)c(=O)[nH]1 (stereo not shown) [Example 144, 2-bromo-N-((4,6-dimethyl-2-oxo-1,2-dihydropyridin-3-yl)methyl)-5-(1-(4-hydroxypiperidin-1-yl)ethyl)-6-indolizine-7-carboxamide]
6.00 to 7.00 | Cc1cc(C)c(CNC(=O)c2cc3cccn3c(C(O)c3ccc(Br)cc3)c2C)c(=O)[nH]1 (stereo not shown) [Example 23, 5-((4-bromophenyl)(hydroxy)methyl)-N-((4,6-dimethyl-2-oxo-1,2-dihydropyridin-3-yl)methyl)-6-methylindolizine-7-carboxamide]
6.00 to 7.00 | CCN1CCN(C(C)c2c(C)c(C(=O)NCc3c(C)cc(C)[nH]c3=O)cc3cc(Br)cn23)CC1 (stereo not shown) [Example 98, N-((4,6-dimethyl-2-oxo-1,2-dihydropyridin-3-yl)methyl)-6-methyl-5-(1-(4-methylpiperazine)-1-ethyl)-2-bromoindolizine-7-carboxamide]
> 7.00 | N-((4,6-dimethyl-2-oxo-1,2-dihydropyridin-3-yl)methyl)-6-methyl-5-(1-morpholinylethyl)-2-(1-ethyl-1H-pyrazole)indolizine-7-carboxamide [Example 113]

The remaining lines, values behind:

Compound | pIC50
Cc1cc(C)c(CNC(=O)c2cc3cc(-c4cncs4)cn3c(C(C)N3CCC(N(C)C)CC3)c2C)c(=O)[nH]1 (stereo not shown) [Example 138] | > 7.00
COc1cc(C)[nH]c(=O)c1CNC(=O)c1cc2c(-c3cc(C)nc(C)c3)ccn2c([C@H](C)N2CCN(CC(F)(F)F)CC2)c1C (single isomer, unassigned) [Compound 175, (S)-1-(2,6-dimethylpyridin-4-yl)-N-((4-methoxy-6-methyl-2-oxo-1,2-dihydropyridine-3-yl)methyl)-6-methyl-5-(1-(4-(2,2,2-trifluoroethyl)piperazin-1-yl)ethyl)indolizine-7-carboxamide or (R) 1-(2,6-dimethylpyridin-4-yl)-N-((4-methoxy-6-methyl-2-oxo-1,2-dihydropyridine-3-yl)methyl)-6-methyl-5-(1-(4-(2,2,2-trifluoroethyl)piperazin-1-yl)ethyl)indolizine-7-carboxamide] | 6.00 to 7.00
Cc1cc(C)c(CNC(=O)c2cc3cc(C4CCNCC4)cn3c(C(C)N3CCOCC3)c2C)c(=O)[nH]1 (stereo not shown) [Example 46, N-((4,6-dimethyl-2-oxo-1,2-dihydropyridin-3-yl)methyl)-6-methyl-5-(1-morphinolinylethyl)-2-(piperidin-4-yl)indolizine-7-carboxamide] | > 7.00
CNc1ccc(-c2ccn3c([C@H](C)N4CCN(CC(F)(F)F)CC4)c(C)c(C(=O)NCc4c(OC)cc(C)[nH]c4=O)cc23)cn1 (single isomer, unassigned) [Compound 165, (S)—N-((4-methoxy-6-methyl-2-oxo-1,2-dihydropyridin-3-yl)methyl)-6-methyl-1-(6-(methylamino)pyridin-3-yl)-5-(1-(4-(2,2,2-trifluoroethyl)piperazin-1-yl)ethyl)indolizine-7-formamide or (R)—N-((4-methoxy-6-methyl-2-oxo-1,2-dihydropyridin-3-yl)methyl)-6-methyl-1-(6-(methylamino)pyridin-3-yl)-5-(1-(4-(2,2,2-trifluoroethyl)piperazin-1-yl)ethyl)indolizine-7-formamide] | > 7.00
COc1cc(C)[nH]c(=O)c1CNC(=O)c1cc2c(-c3ccc(C)nc3)ccn2c(C(C)N2CCN(CC(F)(F)F)CC2)c1C (stereo not shown) [Compound 192, N-((4-methoxy-6-methyl-2-oxo-1,2-dihydropyridin-3-yl)methyl)-6-methyl-1-(6-methylpyridin-3-yl)-5-(1-(4-(2,2,2-trifluoroethyl)piperazin-1-yl)ethyl)indolizine-7-carboxamide] | > 7.00
Cc1cc(C)c(CNC(=O)c2cc3cc(Br)cn3c(C(C)N3CCC(F)(F)CC3)c2C)c(=O)[nH]1 (stereo not shown) [Example 123, 2-bromo-5-(1-(4,4-difluoropiperidin-1-yl)ethyl)-N-((4,6-dimethyl-2-oxo-1,2-dihydropyridin-3-yl)methyl)-6-methylindolizine-7-carboxamide] | 5.00 to 6.00
Cc1cc(C)c(CNC(=O)c2cc3cc(C4=CCNCC4)cn3c(C(C)N3CCOCC3)c2C)c(=O)[nH]1 (stereo not shown) [Example 45, N-((4,6-dimethyl-2-oxo-1,2-dihydropyridin-3-yl)methyl)-6-methyl-5-(1-morphinolinylethyl)-2-(1,2,3,6-tetrahydropyridin-4-yl)indolizine-7-carboxamide] | 5.00 to 6.00
COc1cc(-c2cc3cc(C(=O)NCc4c(C)cc(C)[nH]c4=O)c(C)c(C(C)N4CCC(N(C)C)CC4)n3c2)cc(OC)c1OC (stereo not shown) [Example 92, N-((4,6-dimethyl-2-oxo-1,2-dihydropyridin-3-yl)methyl)-5-(1-(4-(dimethylamino)piperidine-1-yl)ethyl)-6-methyl-2-(3,4,5-trimethoxyphenyl)-indolizine-7-carboxamide] | > 7.00
Cc1cc(C)c(CNC(=O)c2cc3c(Br)ccn3c(C(C)N3CCOCC3)c2C)c(=O)[nH]1 (stereo not shown) [Example 54, 1-bromo-N-((4,6-dimethyl-2-oxo-1,2-dihydropyridin-3-yl)methyl)-6-methyl-5-(1-morpholinylethyl)indolizine-7-carboxamide] | > 7.00
Cc1cc(C)c(CNC(=O)c2cc3c(-c4ccc(N5CCOCC5)cc4)ccn3c(C(C)N3CCOCC3)c2C)c(=O)[nH]1 (stereo not shown) [Example 119, N-((4,6-dimethyl-2-oxo-1,2-dihydropyridin-3-yl)methyl)-6-methyl-5-(1-morpholinylethyl)-1-(4-morpholinylphenyl)indolizine-7-carboxamide] | > 7.00
COc1cc(C)[nH]c(=O)c1CNC(=O)c1cc2c(-c3cnc(C)nc3)ccn2c([C@H](C)N2CCN(CC(F)(F)F)CC2)c1C (single isomer, unassigned) [Compound 198, (S)—N-((4-methoxy-6-methyl-2-oxo-1,2-dihydropyridin-3-yl)methyl)-6-methyl-1-(2-methylpyrimidin-5-yl)-5-(1-(4-(2,2,2-trifluoroethyl)piperazin-1-yl)ethyl)indolizine-7-formamide or (R)—N-((4-methoxy-6-methyl-2-oxo-1,2-dihydropyridin-3-yl)methyl)-6-methyl-1-(2-methylpyrimidin-5-yl)-5-(1-(4-(2,2,2-trifluoroethyl)piperazin-1-yl)ethyl)indolizine-7-formamide] | > 7.00
